Source: ChEMBL document CHEMBL1139415, “Highly functionalized 7-azaindoles as selective PPAR gamma modulators” (Bioorg Med Chem Lett, 2008)
pIC50: −log10 of the molar value.

Experiments:
[1] = target: Muscarinic acetylcholine receptor M3 (Homo sapiens, UniProt P20309); test: Displacement of radioligand from muscarinic M3 receptor
[2] = target: Polyunsaturated fatty acid 5-lipoxygenase (Homo sapiens, UniProt P09917); test: Inhibition of 5-Lipoxygenase
[3] = target: Prostaglandin E2 receptor EP4 subtype (Homo sapiens, UniProt P35408); test: Inhibition of prostanoid EP4 receptor
[4] = target: Delta-type opioid receptor (Homo sapiens, UniProt P41143); test: Displacement of radioligand from delta opioid receptor
[5] = target: D(2) dopamine receptor (Homo sapiens, UniProt P14416); test: Displacement of radioligand from dopamine D2S receptor
[6] = target: Mu-type opioid receptor (Homo sapiens, UniProt P35372); test: Displacement of radioligand from mu opioid receptor
[7] = target: Sodium-dependent serotonin transporter (Homo sapiens, UniProt P31645); test: Displacement of radioligand from SERT
[8] = Inhibition of PDE3
[9] = target: Alpha-2B adrenergic receptor (Homo sapiens, UniProt P18089); test: Displacement of radioligand from adrenergic alpha2B receptor
[10] = target: Thromboxane A2 receptor (Homo sapiens, UniProt P21731); test: Displacement of radioligand from TXA2 receptor
[11] = target: Prostacyclin receptor (Homo sapiens, UniProt P43119); test: Inhibition of prostanoid IP receptor
[12] = Inhibition of PDE2
[13] = target: Sodium-dependent dopamine transporter (Homo sapiens, UniProt Q01959); test: Displacement of radioligand from DAT
[14] = target: Kappa-type opioid receptor (Homo sapiens, UniProt P41145); test: Displacement of radioligand from kappa opioid receptor
[15] = target: Alpha-2A adrenergic receptor (Homo sapiens, UniProt P08913); test: Displacement of radioligand from adrenergic alpha2A receptor
[16] = target: Prostaglandin F2-alpha receptor (Homo sapiens, UniProt P43088); test: Inhibition of prostanoid FP receptor
[17] = target: 5-hydroxytryptamine receptor 2B (Homo sapiens, UniProt P41595); test: Displacement of radioligand from 5HT2B receptor
[18] = target: Prostaglandin D2 receptor (Homo sapiens, UniProt Q13258); test: Inhibition of prostanoid DP receptor
[19] = target: Beta-3 adrenergic receptor (Homo sapiens, UniProt P13945); test: Displacement of radioligand from adrenergic beta3 receptor
[20] = target: Beta-1 adrenergic receptor (Homo sapiens, UniProt P08588); test: Displacement of radioligand from adrenergic beta-1 receptor
[21] = target: Substance-K receptor (Homo sapiens, UniProt P21452); test: Displacement of radioligand from tachykinin NK2 receptor
[22] = target: Prostaglandin E2 receptor EP3 subtype (Homo sapiens, UniProt P43115); test: Inhibition of prostanoid EP3 receptor
[23] = target: D(3) dopamine receptor (Homo sapiens, UniProt P35462); test: Displacement of radioligand from dopamine D3 receptor
[24] = target: Muscarinic acetylcholine receptor M4 (Homo sapiens, UniProt P08173); test: Displacement of radioligand from muscarinic M4 receptor
[25] = target: Sodium-dependent noradrenaline transporter (Homo sapiens, UniProt P23975); test: Displacement of radioligand from NET
[26] = target: D(1A) dopamine receptor (Homo sapiens, UniProt P21728); test: Displacement of radioligand from dopamine D1 receptor
Chain of D(1A) dopamine receptor (P21728 whole entry): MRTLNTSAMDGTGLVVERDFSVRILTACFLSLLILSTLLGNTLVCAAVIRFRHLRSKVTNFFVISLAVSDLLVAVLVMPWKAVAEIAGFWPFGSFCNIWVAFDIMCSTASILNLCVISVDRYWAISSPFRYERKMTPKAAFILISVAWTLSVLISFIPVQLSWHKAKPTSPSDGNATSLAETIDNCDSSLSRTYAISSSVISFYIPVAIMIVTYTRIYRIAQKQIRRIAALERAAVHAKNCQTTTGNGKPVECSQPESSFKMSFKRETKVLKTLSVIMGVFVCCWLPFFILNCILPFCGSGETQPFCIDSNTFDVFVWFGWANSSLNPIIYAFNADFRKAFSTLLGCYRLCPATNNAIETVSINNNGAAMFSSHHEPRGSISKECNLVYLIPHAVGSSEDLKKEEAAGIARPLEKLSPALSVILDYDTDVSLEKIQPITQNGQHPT

Chain of Prostaglandin D2 receptor (Q13258 whole entry): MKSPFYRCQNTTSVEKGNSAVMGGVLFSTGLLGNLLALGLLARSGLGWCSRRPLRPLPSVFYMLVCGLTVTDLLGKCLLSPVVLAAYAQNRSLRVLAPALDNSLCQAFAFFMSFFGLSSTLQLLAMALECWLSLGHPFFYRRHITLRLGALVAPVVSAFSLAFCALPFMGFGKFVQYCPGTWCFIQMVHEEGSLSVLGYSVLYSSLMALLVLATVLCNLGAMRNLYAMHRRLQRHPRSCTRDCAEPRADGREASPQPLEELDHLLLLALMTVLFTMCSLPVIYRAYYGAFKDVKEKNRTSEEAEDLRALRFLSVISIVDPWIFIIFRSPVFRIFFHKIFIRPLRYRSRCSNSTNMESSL
Chain of Sodium-dependent dopamine transporter (Q01959 whole entry): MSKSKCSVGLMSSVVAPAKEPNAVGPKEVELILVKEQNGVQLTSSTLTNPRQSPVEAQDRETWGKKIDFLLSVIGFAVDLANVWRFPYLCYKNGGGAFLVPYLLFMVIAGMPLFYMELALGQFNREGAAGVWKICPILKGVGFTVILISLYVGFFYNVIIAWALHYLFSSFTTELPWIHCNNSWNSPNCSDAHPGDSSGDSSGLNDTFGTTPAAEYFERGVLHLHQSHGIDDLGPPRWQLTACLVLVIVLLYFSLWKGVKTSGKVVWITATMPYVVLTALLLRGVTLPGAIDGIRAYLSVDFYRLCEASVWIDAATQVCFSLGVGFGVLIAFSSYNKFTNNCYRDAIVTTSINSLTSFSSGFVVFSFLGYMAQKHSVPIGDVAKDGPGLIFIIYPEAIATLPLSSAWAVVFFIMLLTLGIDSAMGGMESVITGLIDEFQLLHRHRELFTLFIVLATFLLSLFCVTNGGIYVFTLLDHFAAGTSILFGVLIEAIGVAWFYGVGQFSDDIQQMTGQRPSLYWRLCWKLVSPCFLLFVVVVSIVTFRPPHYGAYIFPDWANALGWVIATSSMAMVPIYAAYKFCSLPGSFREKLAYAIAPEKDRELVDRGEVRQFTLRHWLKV
Chain of Delta-type opioid receptor (P41143 whole entry): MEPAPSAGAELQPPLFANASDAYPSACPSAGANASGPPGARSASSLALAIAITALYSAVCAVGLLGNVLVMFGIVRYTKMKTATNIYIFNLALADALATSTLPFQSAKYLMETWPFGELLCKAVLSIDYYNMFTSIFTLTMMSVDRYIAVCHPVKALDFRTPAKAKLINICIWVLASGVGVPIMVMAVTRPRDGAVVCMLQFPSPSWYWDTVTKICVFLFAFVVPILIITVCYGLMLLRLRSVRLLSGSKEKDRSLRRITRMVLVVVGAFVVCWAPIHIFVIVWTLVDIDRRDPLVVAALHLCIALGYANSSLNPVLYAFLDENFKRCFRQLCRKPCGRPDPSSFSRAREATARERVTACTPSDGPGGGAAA
Chain of Sodium-dependent serotonin transporter (P31645 whole entry): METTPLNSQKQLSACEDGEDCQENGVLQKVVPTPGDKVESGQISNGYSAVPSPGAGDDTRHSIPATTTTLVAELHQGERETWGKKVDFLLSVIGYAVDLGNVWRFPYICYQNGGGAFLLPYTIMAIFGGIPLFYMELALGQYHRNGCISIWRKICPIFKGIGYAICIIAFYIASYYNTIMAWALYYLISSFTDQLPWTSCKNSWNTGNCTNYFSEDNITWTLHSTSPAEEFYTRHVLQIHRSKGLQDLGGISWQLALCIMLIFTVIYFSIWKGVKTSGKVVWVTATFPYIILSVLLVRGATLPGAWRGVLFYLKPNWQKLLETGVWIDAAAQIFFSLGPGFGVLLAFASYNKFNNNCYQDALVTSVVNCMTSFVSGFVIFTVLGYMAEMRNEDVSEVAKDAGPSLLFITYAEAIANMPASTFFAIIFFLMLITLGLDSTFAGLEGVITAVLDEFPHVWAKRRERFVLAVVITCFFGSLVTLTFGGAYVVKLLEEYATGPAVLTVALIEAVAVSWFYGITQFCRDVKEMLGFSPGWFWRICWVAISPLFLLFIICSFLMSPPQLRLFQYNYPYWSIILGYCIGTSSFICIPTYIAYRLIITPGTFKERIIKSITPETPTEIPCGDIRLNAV
Chain of Prostaglandin F2-alpha receptor (P43088 whole entry): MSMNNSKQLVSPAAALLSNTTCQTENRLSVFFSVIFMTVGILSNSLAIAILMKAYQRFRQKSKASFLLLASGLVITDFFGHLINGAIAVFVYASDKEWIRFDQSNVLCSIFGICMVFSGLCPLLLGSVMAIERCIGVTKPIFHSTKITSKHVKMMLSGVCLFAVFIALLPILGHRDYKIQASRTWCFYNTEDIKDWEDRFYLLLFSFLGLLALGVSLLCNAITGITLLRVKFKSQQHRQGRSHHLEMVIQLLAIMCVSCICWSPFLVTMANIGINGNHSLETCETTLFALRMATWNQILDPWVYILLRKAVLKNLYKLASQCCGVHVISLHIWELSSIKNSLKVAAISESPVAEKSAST
Chain of Thromboxane A2 receptor (P21731 whole entry): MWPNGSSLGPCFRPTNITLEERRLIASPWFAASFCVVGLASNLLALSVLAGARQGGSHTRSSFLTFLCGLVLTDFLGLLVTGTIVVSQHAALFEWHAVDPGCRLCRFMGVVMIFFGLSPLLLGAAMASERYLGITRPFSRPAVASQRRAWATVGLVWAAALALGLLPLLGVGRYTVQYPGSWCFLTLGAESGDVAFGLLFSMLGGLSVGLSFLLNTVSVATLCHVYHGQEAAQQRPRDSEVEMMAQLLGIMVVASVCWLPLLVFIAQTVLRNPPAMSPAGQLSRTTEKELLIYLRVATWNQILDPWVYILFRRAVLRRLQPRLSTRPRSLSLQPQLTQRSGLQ
Chain of Prostaglandin E2 receptor EP3 subtype (P43115 whole entry): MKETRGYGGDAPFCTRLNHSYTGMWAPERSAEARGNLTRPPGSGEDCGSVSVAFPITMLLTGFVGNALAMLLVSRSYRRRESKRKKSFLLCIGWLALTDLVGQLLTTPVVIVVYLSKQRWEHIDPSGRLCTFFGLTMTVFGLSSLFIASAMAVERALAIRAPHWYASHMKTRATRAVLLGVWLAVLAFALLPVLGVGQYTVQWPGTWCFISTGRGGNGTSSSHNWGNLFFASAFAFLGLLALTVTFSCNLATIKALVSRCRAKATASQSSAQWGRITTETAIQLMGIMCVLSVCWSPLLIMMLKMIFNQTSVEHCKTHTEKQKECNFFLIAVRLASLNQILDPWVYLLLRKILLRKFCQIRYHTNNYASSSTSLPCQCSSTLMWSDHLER
Chain of Kappa-type opioid receptor (P41145 whole entry): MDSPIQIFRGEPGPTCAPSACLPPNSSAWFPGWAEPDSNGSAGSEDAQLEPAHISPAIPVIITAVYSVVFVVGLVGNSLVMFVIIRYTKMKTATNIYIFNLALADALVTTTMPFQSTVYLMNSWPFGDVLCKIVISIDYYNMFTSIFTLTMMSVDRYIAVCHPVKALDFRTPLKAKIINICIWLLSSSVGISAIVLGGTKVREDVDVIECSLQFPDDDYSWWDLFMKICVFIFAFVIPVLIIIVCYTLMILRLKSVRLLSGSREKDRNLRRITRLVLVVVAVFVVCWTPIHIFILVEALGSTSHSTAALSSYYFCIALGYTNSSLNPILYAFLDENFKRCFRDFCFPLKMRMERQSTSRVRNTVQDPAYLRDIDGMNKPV
Chain of Prostaglandin E2 receptor EP4 subtype (P35408 whole entry): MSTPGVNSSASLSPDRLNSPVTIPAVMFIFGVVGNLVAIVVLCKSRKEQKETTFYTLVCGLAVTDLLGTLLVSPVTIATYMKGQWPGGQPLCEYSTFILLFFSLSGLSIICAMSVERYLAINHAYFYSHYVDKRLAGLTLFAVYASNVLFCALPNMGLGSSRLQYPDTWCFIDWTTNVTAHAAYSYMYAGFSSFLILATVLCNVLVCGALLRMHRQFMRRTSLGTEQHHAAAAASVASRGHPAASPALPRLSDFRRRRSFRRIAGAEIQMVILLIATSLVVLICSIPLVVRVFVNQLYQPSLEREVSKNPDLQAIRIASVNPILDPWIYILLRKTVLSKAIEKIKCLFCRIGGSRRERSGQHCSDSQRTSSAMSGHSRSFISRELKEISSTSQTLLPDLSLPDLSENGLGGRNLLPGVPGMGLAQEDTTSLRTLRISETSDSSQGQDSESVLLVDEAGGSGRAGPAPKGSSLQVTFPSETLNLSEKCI
Chain of D(2) dopamine receptor (P14416 whole entry): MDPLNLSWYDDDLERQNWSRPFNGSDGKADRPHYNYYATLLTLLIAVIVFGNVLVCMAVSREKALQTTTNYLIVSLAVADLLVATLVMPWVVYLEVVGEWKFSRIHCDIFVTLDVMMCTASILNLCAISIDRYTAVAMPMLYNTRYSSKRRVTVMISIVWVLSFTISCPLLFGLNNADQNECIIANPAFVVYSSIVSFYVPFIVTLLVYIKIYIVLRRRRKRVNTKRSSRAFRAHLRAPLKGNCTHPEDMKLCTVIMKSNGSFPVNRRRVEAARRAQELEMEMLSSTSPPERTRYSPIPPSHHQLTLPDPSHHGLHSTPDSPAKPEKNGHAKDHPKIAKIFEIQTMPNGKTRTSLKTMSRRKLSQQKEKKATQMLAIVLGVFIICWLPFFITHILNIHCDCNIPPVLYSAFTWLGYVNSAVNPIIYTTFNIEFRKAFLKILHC

SMILES: Cc1c(C(=O)c2ccc(Cl)cc2)c2ccc(OC(F)(F)F)cc2n1Cc1cccc(O[C@H](C)C(=O)O)c1
- pIC50 [1]: 5.81
- pIC50 [2]: 5.79
- pIC50 [3]: 5.43
- pIC50 [4]: 5.77
- pIC50 [5]: 5.45
- pIC50 [6]: 5.73
- pIC50 [7]: 6.01
- pIC50 [8]: 4.65
- pIC50 [9]: 6.11
- pIC50 [10]: 5.69
- pIC50 [11]: 5.20
- pIC50 [12]: 4.54
- pIC50 [13]: 5.47
- pIC50 [14]: 5.46
- pIC50 [15]: 5.78
- pIC50 [16]: 5.56
- pIC50 [17]: 5.94
- pIC50 [18]: 5.07
- pIC50 [19]: 5.31
- pIC50 [20]: 5.39
- pIC50 [21]: 6.28
- pIC50 [22]: 5.91
- pIC50 [23]: 6.08
- pIC50 [24]: 5.87
- pIC50 [25]: 5.67
- pIC50 [26]: 5.82
